This note sets out measurements from ChEMBL document CHEMBL5131532, “Synthesis and Evaluation of Small Molecule Disruptors of the Aha1/Hsp90 Complex for the Reduction of Tau Aggregation” (ACS Med Chem Lett, 2022).

The structures appear in SMILES notation. Calls of active or inactive are those of the source. The calls are words filed in the database; no cut-off is given here.

The nature of experiment [1]: Disruption of recombinant GST-tagged human Aha1/His6-tagged full length human Hsp90alpha protein-protein interaction expressed in Escherichia coli incubated for 4 hrs by AlphaLisa assay.
For experiment [2], the system named is SH-SY5Y. Kind of experiment: Disruption of Aha1/Hsp90 alpha protein-protein interaction in human SH-SY5Y cells lysate at 10 uM incubated for 24 hrs by co-immunoprecipitation assay. Format: subcellular.
Experiment [3] is filed under the species Homo sapiens. Description: Disruption of recombinant human Aha1/Hsp90 alpha protein-protein interaction expressed in Escherichia coli […] assessed as inhibition of recombinant human P301L tau aggregation incubated for 30 mins by ThT fluorescence assay.
Experiment [4] has as its system SK-BR-3. Description: Disruption of Aha1/Hsp90 protein-protein interaction in human SK-BR-3 cells lysate at 10 uM incubated for 24 hrs by co-immunoprecipitation assay. The experiment is classed as subcellular.

What is called IC50 is the midpoint of a concentration-inhibition curve.

For `COc1ccc(C(=O)Nc2ccc(C(F)(F)F)cc2)cc1-c1ccc(C(F)(F)F)cc1`, the IC50 in experiment [1] was > 10 µM.

As for `COc1ccc(C(=O)Nc2ccc(C(F)(F)F)cc2)cc1-c1cccc(N(C)C)c1`, the result in experiment [2], in experiment [3] and in experiment [4] was Active. The IC50 in experiment [1] came out at 3.36 µM.

For `COc1ccc(C(=O)Nc2ccc(C(F)(F)F)cc2)cc1-c1c(OC)cccc1OC`, the IC50 in experiment [1] was 9.05 µM.

Regarding `COc1cccc(-c2cc(C(=O)Nc3ccccc3Cl)ccc2OC)c1`, the IC50 in experiment [1] is > 10 µM.

`COc1ccc(C(=O)Nc2ccc(C(F)(F)F)cc2)c(-c2ccc(O)cc2)c1`: the IC50 in experiment [1] was > 10 µM.

On to `COc1ccc(C(=O)Nc2ccc(C(F)(F)F)cc2)cc1-c1cccc(Cl)c1`, for which the concentration for half-maximal inhibition (IC50) in experiment [1] is > 10 µM.

Turning to `COc1cccc(-c2cc(C(=O)Nc3cccc(Cl)c3)ccc2OC)c1`, the IC50 in experiment [1] is > 10 µM.

For the molecule `COc1ccc(C(=O)Nc2ccc(C(F)(F)F)cc2)cc1-c1ccc(Cl)cc1`, the IC50 in experiment [1] is > 10 µM.

Consider `COc1ccc(C(=O)Nc2ccc(C(F)(F)F)cc2)cc1-c1cccc(N)c1`, for which the concentration for half-maximal inhibition (IC50) in experiment [1] stood at 7.23 µM.

Take `COc1cccc(-c2cc(C(=O)Nc3ccc(F)cc3)ccc2OC)c1`: the IC50 in experiment [1] amounted to 6.32 µM.

On to `COc1ccc(C(=O)Nc2ccc(C(F)(F)F)cc2)cc1-c1cccc(OC)c1OC`, for which the IC50 in experiment [1] is > 10 µM.

On to `COc1ccc(C(=O)Nc2ccc(C(F)(F)F)cc2)cc1-c1cccc(F)c1`, for which, in experiment [1], the IC50 was > 10 µM.

`COc1cccc(-c2cc(OC)ccc2C(=O)Nc2ccc(C(F)(F)F)cc2)c1`: the IC50 in experiment [1] was > 10 µM.

As to `COc1ccc(C(=O)Nc2ccc(C(F)(F)F)cc2)cc1-c1cccc(CO)c1`, in experiment [1], the 50% inhibitory concentration (IC50) is > 10 µM.

Turning to `COc1cccc(-c2cc(C(=O)Nc3ccc(C(F)(F)F)cc3)ccc2OC)c1`, the outcome in experiment [2] and in experiment [4] was Active. Besides, in experiment [1], the IC50 was 4.83 µM.

For `COc1cccc(-c2cc(C(=O)Nc3ccc(C#N)cc3)ccc2OC)c1`, in experiment [1], the IC50 is 8.57 µM.

Turning to `COc1cccc(-c2cc(C(=O)Nc3ccc(OC)cc3OC)ccc2OC)c1`, in experiment [1], the IC50 was found to be 9.53 µM.

Turning to `COc1ccc(C(=O)Nc2ccc(C(F)(F)F)cc2)c(-c2ccc(Cl)c(Cl)c2)c1`, in experiment [1], the IC50 is > 10 µM.

As to `COc1ccc(C(=O)Nc2ccc(C(F)(F)F)cc2)c(-c2ccc(Cl)cc2)c1`, the IC50 in experiment [1] was > 10 µM.

For `COc1ccc(C(=O)Nc2ccc(C(F)(F)F)cc2)cc1-c1ccc(Cl)c(C(F)(F)F)c1`, the IC50 in experiment [1] was > 10 µM.

`COc1cccc(-c2cc(-c3nnnn3-c3ccc(C(F)(F)F)cc3)ccc2OC)c1`: the outcome in experiment [2], in experiment [3] and in experiment [4] was Active. Besides, the half-inhibitory concentration (IC50) in experiment [1] came to 3.32 µM.

Turning to `COc1ccc(NC(=O)c2ccc(OC)c(-c3cccc(OC)c3)c2)cc1`, the IC50 in experiment [1] is > 10 µM.

For `COc1cccc(-c2cc(C(=O)Nc3ccccc3)ccc2OC)c1`, in experiment [1], the IC50 was > 10 µM.

With `COc1ccc(C(=O)Nc2ccc(C(F)(F)F)cc2)c(-c2ccccc2)c1`, in experiment [1], the IC50 was > 10 µM.

On to `COc1cccc(-c2cc(C(=O)Nc3ccc(O)cc3)ccc2OC)c1`, for which the IC50 in experiment [1] is > 10 µM.

Consider `COc1cccc(-c2cc(C(=O)Nc3ccc(Cl)cc3)ccc2OC)c1`, for which the IC50 in experiment [1] is 6.03 µM.

`COc1ccc(C(=O)Nc2ccc(C(F)(F)F)cc2)cc1-c1ccccc1O`: in experiment [1], the IC50 was > 10 µM.

On to `COc1ccc(-c2cc(C(=O)Nc3ccc(C(F)(F)F)cc3)ccc2OC)cc1`, for which the IC50 in experiment [1] was > 10 µM.

In the case of `COc1ccc(C(=O)Nc2ccc(C(F)(F)F)cc2)cc1-c1cccc(O)c1`, the IC50 in experiment [1] was > 10 µM.

In the case of `COc1ccc(C(=O)Nc2ccc(C(F)(F)F)cc2)cc1-c1ccc(Cl)c(Cl)c1`, the IC50 in experiment [1] was > 10 µM.

`COC(=O)c1cccc(NC(=O)c2ccc(OC)c(-c3cccc(OC)c3)c2)c1`: the IC50 in experiment [1] was > 10 µM.

Take `COc1cccc(-c2cc(C(=O)Nc3cccc(Cl)c3Cl)ccc2OC)c1`: in experiment [1], the IC50 is > 10 µM.

With `COc1ccc(C(=O)Nc2ccc(C(F)(F)F)cc2)c(-c2ccc(Cl)c(C(F)(F)F)c2)c1`, the IC50 in experiment [1] is > 10 µM.

With `COc1ccc(C(=O)Nc2ccc(C(F)(F)F)cc2)cc1-c1ccccc1`, the IC50 in experiment [1] was > 10 µM.

With `COc1ccc(C(=O)Nc2ccc(C(F)(F)F)cc2)cc1-c1cccc(C(F)(F)F)c1`, the concentration for half-maximal inhibition (IC50) in experiment [1] was > 10 µM.

Take `COc1ccc(C(=O)Nc2ccc(C(F)(F)F)cc2)c(-c2cccc(O)c2)c1`: in experiment [1], the 50% inhibitory concentration (IC50) was > 10 µM.

On to `COc1ccccc1-c1cc(C(=O)Nc2ccc(C(F)(F)F)cc2)ccc1OC`, for which the IC50 in experiment [1] worked out at 9.65 µM.

Turning to `COc1cccc(-c2cc(C(=O)Nc3cccc([N+](=O)[O-])c3)ccc2OC)c1`, the IC50 in experiment [1] is > 10 µM.

Take `COC(=O)c1ccc(NC(=O)c2ccc(OC)c(-c3cccc(OC)c3)c2)cc1`: the IC50 in experiment [1] is > 10 µM.

With `COc1cc(NC(=O)c2ccc(OC)c(-c3cccc(OC)c3)c2)cc(OC)c1`, the IC50 in experiment [1] is > 10 µM.

On to `COc1ccc(C(=O)Nc2ccc(C(F)(F)F)cc2)c(-c2ccccc2OC)c1`, for which, in experiment [1], the IC50 is > 10 µM.

With `COc1ccc(C(=O)Nc2ccc(C(F)(F)F)cc2)cc1-c1ccc(O)cc1`, the IC50 in experiment [1] was determined as 6.39 µM.

For the molecule `COc1ccc(-c2cc(OC)ccc2C(=O)Nc2ccc(C(F)(F)F)cc2)cc1`, in experiment [1], the IC50 was > 10 µM.

Consider `COc1cccc(-c2cc(C(=O)Nc3ccc([N+](=O)[O-])cc3)ccc2OC)c1`, for which the IC50 in experiment [1] was 4.04 µM.

On to `COc1cccc(-c2cc(C(=O)Nc3ccc(Cl)cc3Cl)ccc2OC)c1`, for which the IC50 in experiment [1] was > 10 µM.
